The values that follow come from patent publication US20220041597A1 (FORMA Therapeutics, Inc., priority 2018, published 2022).

The target in this assay is USP9X (Homo sapiens, UniProt Q93008). Briefly: Biochemical Assay for USP9X Inhibition (Ub-Rh110 fluorescence). The following applies: Ub-Rh110 25 nM, 30 min preincubation. The method, then:
Concentration and incubation times were optimized for the maximal signal-to-background while maintaining initial velocity conditions at a fixed substrate concentration (<<Km). […] To assay plates (pre-stamped with compound) was added 3 μL 2× Enzyme. The enzyme was preincubated for 30 minutes and then treated with 3 μL of 2× Substrate. […] The slope (best fit linear regression) of the five reads was used to normalize for inhibition. For all assays, data are reported as percent inhibition compared with control wells based on the following equation: […], wherein FLU is measured Fluorescence, AveLow is average Fluorescence of no enzyme control (n=64), and AveHigh is average Fluorescence of DMSO control (n=64). IC50 values are determined by curve fitting of the standard 4 parameter logistic fitting algorithm included in the Activity Base software package: IDBS XE Designer Model205. Data are fitted using the Levenburg Marquardt algorithm.

Bounds are passed on as bounds.

USP9X, sequence (Q93008 whole entry): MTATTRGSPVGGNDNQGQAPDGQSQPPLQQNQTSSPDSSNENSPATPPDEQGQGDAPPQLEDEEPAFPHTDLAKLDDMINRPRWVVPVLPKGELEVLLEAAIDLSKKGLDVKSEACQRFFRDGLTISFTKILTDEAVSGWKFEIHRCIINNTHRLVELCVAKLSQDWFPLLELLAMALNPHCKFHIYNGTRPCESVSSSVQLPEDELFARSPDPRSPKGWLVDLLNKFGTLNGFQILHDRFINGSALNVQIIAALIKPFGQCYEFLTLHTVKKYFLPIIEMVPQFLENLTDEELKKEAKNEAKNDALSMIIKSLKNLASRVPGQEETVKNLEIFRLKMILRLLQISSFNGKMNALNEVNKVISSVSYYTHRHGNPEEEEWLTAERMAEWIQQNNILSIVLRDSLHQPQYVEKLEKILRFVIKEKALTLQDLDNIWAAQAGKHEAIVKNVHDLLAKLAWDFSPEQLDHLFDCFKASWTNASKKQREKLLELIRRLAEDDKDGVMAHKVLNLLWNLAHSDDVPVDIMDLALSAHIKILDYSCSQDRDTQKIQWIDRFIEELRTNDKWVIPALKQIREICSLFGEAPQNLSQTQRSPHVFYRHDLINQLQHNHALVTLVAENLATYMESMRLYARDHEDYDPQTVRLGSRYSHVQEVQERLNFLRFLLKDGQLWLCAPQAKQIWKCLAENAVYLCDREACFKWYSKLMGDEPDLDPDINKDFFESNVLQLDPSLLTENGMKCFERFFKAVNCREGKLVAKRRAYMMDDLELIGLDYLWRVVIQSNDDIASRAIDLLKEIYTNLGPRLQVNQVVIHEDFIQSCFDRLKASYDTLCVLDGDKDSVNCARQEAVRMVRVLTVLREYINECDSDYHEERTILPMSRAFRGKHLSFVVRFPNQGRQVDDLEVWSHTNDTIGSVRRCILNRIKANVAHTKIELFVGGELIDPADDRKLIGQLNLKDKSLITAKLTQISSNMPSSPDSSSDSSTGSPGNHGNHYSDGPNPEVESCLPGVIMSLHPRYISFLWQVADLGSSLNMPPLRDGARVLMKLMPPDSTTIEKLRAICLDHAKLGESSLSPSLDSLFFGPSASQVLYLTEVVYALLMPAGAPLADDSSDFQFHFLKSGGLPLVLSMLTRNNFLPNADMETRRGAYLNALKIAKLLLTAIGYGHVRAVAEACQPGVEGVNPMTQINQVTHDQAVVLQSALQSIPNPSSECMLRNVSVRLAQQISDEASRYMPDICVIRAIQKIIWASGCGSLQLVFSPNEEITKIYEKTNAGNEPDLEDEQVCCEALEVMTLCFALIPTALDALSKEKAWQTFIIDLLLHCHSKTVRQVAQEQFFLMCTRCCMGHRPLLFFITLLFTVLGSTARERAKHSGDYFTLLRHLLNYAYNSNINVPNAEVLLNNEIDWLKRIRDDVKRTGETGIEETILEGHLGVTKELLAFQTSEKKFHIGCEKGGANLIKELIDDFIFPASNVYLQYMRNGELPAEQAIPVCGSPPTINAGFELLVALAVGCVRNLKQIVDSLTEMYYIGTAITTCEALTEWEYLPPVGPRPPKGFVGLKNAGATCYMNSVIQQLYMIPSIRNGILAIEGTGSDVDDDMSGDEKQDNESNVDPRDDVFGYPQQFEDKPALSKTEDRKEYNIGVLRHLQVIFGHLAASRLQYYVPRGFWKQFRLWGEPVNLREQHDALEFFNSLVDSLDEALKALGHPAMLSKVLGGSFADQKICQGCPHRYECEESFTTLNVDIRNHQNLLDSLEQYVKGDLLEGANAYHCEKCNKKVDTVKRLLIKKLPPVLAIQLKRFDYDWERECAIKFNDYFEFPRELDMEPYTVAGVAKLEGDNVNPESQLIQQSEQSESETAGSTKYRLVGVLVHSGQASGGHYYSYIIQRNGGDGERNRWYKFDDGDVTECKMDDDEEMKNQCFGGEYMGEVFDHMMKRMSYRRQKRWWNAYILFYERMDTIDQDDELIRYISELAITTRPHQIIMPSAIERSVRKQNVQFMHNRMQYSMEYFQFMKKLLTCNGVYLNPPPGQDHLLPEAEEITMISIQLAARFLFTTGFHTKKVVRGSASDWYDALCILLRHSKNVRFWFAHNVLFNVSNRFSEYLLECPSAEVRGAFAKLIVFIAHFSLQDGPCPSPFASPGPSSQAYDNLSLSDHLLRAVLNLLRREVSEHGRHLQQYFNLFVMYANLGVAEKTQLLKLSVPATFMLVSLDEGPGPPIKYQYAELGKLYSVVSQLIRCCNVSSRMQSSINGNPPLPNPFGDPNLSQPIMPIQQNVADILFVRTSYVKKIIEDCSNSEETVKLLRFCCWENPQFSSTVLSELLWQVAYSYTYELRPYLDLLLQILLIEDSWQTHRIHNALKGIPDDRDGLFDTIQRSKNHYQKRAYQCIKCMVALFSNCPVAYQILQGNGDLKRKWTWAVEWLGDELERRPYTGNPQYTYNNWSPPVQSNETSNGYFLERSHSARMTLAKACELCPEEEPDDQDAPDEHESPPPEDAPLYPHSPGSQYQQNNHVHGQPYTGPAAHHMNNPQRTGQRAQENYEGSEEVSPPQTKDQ

In the case of `CN1CCC(Oc2cccc(C(O)c3cc4c(cn3)CN(S(=O)(=O)c3ccc(-c5ncco5)cc3)C4)c2)CC1` (single isomer, unassigned) [Example 79], the 50% inhibitory concentration (IC50) (in general, the concentration at which inhibition is half-maximal) (USP9X […]) lay within 1 to 100 nM.

For the compound `O=S(=O)(C1CCN(c2ncco2)CC1)N1Cc2cnc(C(O)c3ccccc3)cc2C1` (centres unmarked) [Example 32, (2-{[1-(1,3-oxazol-2-yl)piperidin-4-yl]sulfonyl}-1H,2H,3H-pyrrolo[3,4-c]pyridine-6-yl)(phenyl)methanol], the 50% inhibitory concentration (IC50) (USP9X 0.025 nM) was over 25000 nM.

`CN1CCC(Oc2cccc(C(O)c3cc4c(cn3)CN(S(=O)(=O)c3ccc(-c5ncco5)cc3)C4)c2)CC1` (single isomer, unassigned) [Example 78]: the half-maximal inhibitory concentration (IC50) (USP9X 0.025 nM) was 1 to 100 nM.

`O=S(=O)(c1ccc(-n2ccnc2)cc1)N1Cc2cnc(C(O)c3ccccc3)cc2C1` (centres unmarked) [Example 19] registered an IC50 (USP9X 0.025 nM) of over 25000 nM.

Regarding `O=S(=O)(C1CCN(c2nccs2)CC1)N1Cc2cnc(C(O)c3ccccc3)cc2C1` (centres unmarked) [Example 24], under “USP9X 0.025 nM”, the IC50 is over 25000 nM.
